Assay results from patent US20040220259A1, “Topical treatment of dermatological disorders associated with reactive or dilated blood vessels” (priority 2003, published 2004).
Read-outs that look alike come from different tables or passages of the source.

What was measured:
[1] = pH over time of 0.1 M aqueous solutions of polyhydroxy-lactones (reaction with water to free acid); type: physicochemical; settings: for pH: 0.1 M (1.78%) aqueous solution; for pH in aqueous solution: 0.1 M
Source text: In general, because the formulation is to be applied to the skin, it is preferred to have a pH of about three to eight, to minimize irritation, and/or may be in a controlled release formulation, as discussed below. In some cases, an adjustment of the pH of the composition may be desirable because of the tendency of some polyhydroxy-lactones to react with water molecules and form free acid molecules, thereby altering the pH of the overall composition over time until the equilibrium of the reaction has been reached. This lowered pH may cause discomfort to the patient, as the compositions may irritate or sting the skin area when applied. The reaction with water is evidenced by a continued decrease in pH of the solution. As is know in the art, a freshly prepared gluconolactone 1% aqueous solution has pH 3.6. The pH changes to 2.5 after 2 hours. See, The Merck Index, 13th Edition, #4470. […]

[2] = 1% aqueous solution, cited from earlier work

## O=C1O[C@H](CO)[C@@H](O)[C@H](O)[C@H]1O [D-gluconolactone]
[1]; 0 minutes
  pH: 2.1
[1]; 60 minutes
  pH: 2.0
[1]; 360 minutes
  pH: 1.9
[1]; 4320 minutes
  pH: 1.8
[1]; 1 hour
  pH in aqueous solution: 2.0
[1]; 6 hours
  pH in aqueous solution: 1.9
[1]; 24 hours
  pH in aqueous solution: 1.9
[1]; 48 hours
  pH in aqueous solution: 1.9
[1]; 72 hours
  pH in aqueous solution: 1.8
[1]; fresh
  pH in aqueous solution: 2.1
[2]; after 2 hours
  pH: 2.5
[2]; freshly prepared
  pH: 3.6

## O=C1O[C@@H](C(O)CO)[C@H](O)C1O (stereo partly drawn) [D-gulonolactone]
[1]; 1 hour
  pH in aqueous solution: 5.8
[1]; 6 hours
  pH in aqueous solution: 4.6
[1]; 24 hours
  pH in aqueous solution: 3.5
[1]; 48 hours
  pH in aqueous solution: 3.0
[1]; 72 hours
  pH in aqueous solution: 2.7
[1]; fresh
  pH in aqueous solution: 6.2

## CC1(C)COC(=O)C1O [D-pantolactone]
[1]; 1 hour
  pH in aqueous solution: 6.5
[1]; 6 hours
  pH in aqueous solution: 6.4
[1]; 24 hours
  pH in aqueous solution: 5.9
[1]; 48 hours
  pH in aqueous solution: 5.7
[1]; 72 hours
  pH in aqueous solution: 5.7
[1]; fresh
  pH in aqueous solution: 6.5

## O=C1O[C@@H]([C@H](O)[C@H](O)CO)[C@@H](O)C1O (stereo partly drawn) [D-glucoheptonolactone]
[1]; 1 hour
  pH in aqueous solution: 5.6
[1]; 6 hours
  pH in aqueous solution: 3.9
[1]; 24 hours
  pH in aqueous solution: 3.1
[1]; 48 hours
  pH in aqueous solution: 2.5
[1]; 72 hours
  pH in aqueous solution: 2.3
[1]; fresh
  pH in aqueous solution: 5.6

## O=C1O[C@H]([C@@H](O)CO)C(O)=C1O [Control, ascorbic acid, reference compound]
[1]; 1 hour
  pH in aqueous solution: 2.1
[1]; 6 hours
  pH in aqueous solution: 2.1
[1]; 24 hours
  pH in aqueous solution: 2.1
[1]; 48 hours
  pH in aqueous solution: 2.1
[1]; 72 hours
  pH in aqueous solution: 2.1
[1]; fresh
  pH in aqueous solution: 2.1

## O=C1O[C@H](CO)[C@@H](O)[C@H]1O [D-ribonolactone]
[1]; 1 hour
  pH in aqueous solution: 6.1
[1]; 6 hours
  pH in aqueous solution: 5.9
[1]; 24 hours
  pH in aqueous solution: 3.9
[1]; 48 hours
  pH in aqueous solution: 2.8
[1]; 72 hours
  pH in aqueous solution: 2.6
[1]; fresh
  pH in aqueous solution: 6.2

## O=C1O[C@@H]([C@H](O)CO)[C@H](O)[C@H]1O [D-galactonolactone]
[1]; 1 hour
  pH in aqueous solution: 5.0
[1]; 6 hours
  pH in aqueous solution: 3.9
[1]; 24 hours
  pH in aqueous solution: 3.2
[1]; 48 hours
  pH in aqueous solution: 2.6
[1]; 72 hours
  pH in aqueous solution: 2.4
[1]; fresh
  pH in aqueous solution: 5.1

## O=C1OC[C@@H](O)[C@H]1O [D-erythronolactone]
[1]; 1 hour
  pH in aqueous solution: 6.3
[1]; 6 hours
  pH in aqueous solution: 6.2
[1]; 24 hours
  pH in aqueous solution: 5.5
[1]; 48 hours
  pH in aqueous solution: 3.2
[1]; 72 hours
  pH in aqueous solution: 3.1
[1]; fresh
  pH in aqueous solution: 6.3

## O=C[C@H](O)[C@H]1OC(=O)[C@@H](O)[C@H]1O [D-glucuronolactone]
[1]; 1 hour
  pH in aqueous solution: 5.7
[1]; 6 hours
  pH in aqueous solution: 4.8
[1]; 24 hours
  pH in aqueous solution: 3.4
[1]; 48 hours
  pH in aqueous solution: 2.6
[1]; 72 hours
  pH in aqueous solution: 2.3
[1]; fresh
  pH in aqueous solution: 5.7
